Experimental data published in US9540396B2, “6-arylamino pyridone carboxamide as MEK inhibitors” (Centaurus Biopharma Co., Ltd., priority 2010, dated 2017).

Key:
MEK1 kinase = MEK1 kinase (Homo sapiens (Human), UniProt Q02750); assay: MEK1 kinase enzymatic activity assay (Kinase Glo plus luminescence); assay type: biochemical; details: 60 minutes at 22 degree
Method: The Kinase Glo plus assay kit was purchased from Promega. The substrate, APT, DTT, and dimethylsulfoxide were purchased from Sigma-Aldrich.
The MAP2K1 (MEK1) kinase, Europium labeled Antibody, Tracer 236 and binding buffer A were purchased from Invitrogen.
Determination of Enzymatic Activity:
Compounds were diluted from DMSO stocks into 1× buffer (20 mM MOPS, PH 7.4, 5 mM MgCl2, 0.5 mM MnCl2, 100 uM Sodium Orthovanadate, 0.01% Triton X-100, 1 mM DTT). A typical reaction assay contained 0.01 nanomoles MEK1 kinase, 0.01 nanomoles ATP, 10 nanograms substrate. The screening assay essentially comprised four additions. 2 ul of diluted compounds were dispensed to 384 well white assay plates. 6 ul of kinase-substrate cocktail was then added to each well. 2 ul 5×ATP was subsequently added to each well to start the reaction. A top seal was applied and the plate was incubated at 22 degree avoiding light for 60 minutes. Finally, 10 ul of the Kinase Glo plus reagent was added to each well to stop the reaction. Incubated at room temperature and avoid light for ten minutes. The top seal was removed and the plate was counted by the EnVision 2104 multi labeled plate reader (PerkinElmer) with a standard luminescent program.

[1] = tested on: phosphorylated ERK in Human A375 melanoma cancer cells; assay: AlphaScreen assay for phosphorylated ERK in A375 cells; details: A-375, 1 h, compound treatment 60 minutes at 37 degree, phospho-ERK, read-out: IC50 (nM) Cell based
Method: The SureFire Phospho-ERK1/2 Assay kit and the AlphaScreen General IgG (Protein A) Detection kit were both purchased from PerkinElmer.
Generation of Cell Based IC50 Data • Effects of compounds in the cell were determined by the AlphaScreen assay for phosphorylated ERK. Human A375 melanoma cancer cells were plated in a 96 wells plate at 80,000 cells per well and grown in a 37 degree humidified CO2 incubator. The following day, cells were treated with a range of compound concentrations for 60 minutes at 37 degree. The cells were then lysed and 4 ul of each lysate were transferred into the 384 well white reaction plate. A cocktail of AlphaScreen beads and buffer was freshly prepared and this mixture was dispensed into each well in a room with low light. A top seal was applied and the plate was incubated at 25 degree avoiding light for two hours. The top seal was removed when the plate was counted by the EnVision multi labeled plate reader (PerkinElmer) with an optimized AlphaScreen program. […] Biological Data for Select Compounds

MEK1 kinase, sequence (Q02750 whole entry): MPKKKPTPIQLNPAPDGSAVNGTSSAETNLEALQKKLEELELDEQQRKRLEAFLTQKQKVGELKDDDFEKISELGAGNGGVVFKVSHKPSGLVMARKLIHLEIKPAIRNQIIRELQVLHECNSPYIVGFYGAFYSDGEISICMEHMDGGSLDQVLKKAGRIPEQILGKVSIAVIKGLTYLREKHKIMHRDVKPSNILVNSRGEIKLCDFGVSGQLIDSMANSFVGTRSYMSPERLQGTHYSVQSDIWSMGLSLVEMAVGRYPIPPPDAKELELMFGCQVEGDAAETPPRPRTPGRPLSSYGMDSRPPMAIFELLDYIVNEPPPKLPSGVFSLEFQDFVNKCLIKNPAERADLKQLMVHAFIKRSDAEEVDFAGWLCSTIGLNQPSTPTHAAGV

SMILES | IC50 (MEK1 kinase) [nM] | IC50 [1] [nM]
Cn1c(Nc2ccc(I)cc2F)c(C(=O)NCCCO)c2occc2c1=O | < 10000 | < 100
Cn1c(Nc2ccc(Br)cc2Cl)c(C(=O)NOCCO)c2occc2c1=O | < 1000 | < 100
Cn1c(Nc2ccc(I)cc2F)c(C(=O)N2CC(O)(C3CCCCN3)C2)c2occc2c1=O (stereo not shown) | < 1000 | < 100
Cn1c(Nc2ccc(I)cc2F)c(C(=O)NC(=O)CO)c2occc2c1=O | < 10000 | < 500
Cn1c(Nc2ccc(I)cc2F)c(C(=O)NCC(O)CO)c2occc2c1=O (stereo not shown) | < 1000 | < 100
CSc1ccc(Nc2c(C(=O)NOCCO)c3occc3c(=O)n2C)c(Cl)c1 | < 1000 | < 100
Cn1c(Nc2ccc(Br)cc2F)c(C(=O)NOCCO)c2occc2c1=O | < 10000 | < 100
Cn1c(Nc2ccc(Cl)cc2Cl)c(C(=O)NOCCO)c2occc2c1=O | < 10000 | < 1000
Cn1c(Nc2ccc(I)cc2F)c(C(N)=O)c2occc2c1=O | < 1000 | < 100
Cn1c(Nc2ccc(I)cc2F)c(C(=O)NOCCO)c2scnc2c1=O | < 10000 | < 10000
Cc1nc2c(=O)n(C)c(Nc3ccc(I)cc3F)c(C(=O)NOCCO)c2o1 | < 1000 | < 100
Cn1c(Nc2ccc(I)cc2F)c(C(=O)NOCCO)c2ncsc2c1=O | < 1000 | < 100
Cn1c(Nc2ccc(I)cc2Cl)c(C(=O)NCCCO)c2occc2c1=O | < 10000 | < 100
Cc1coc2c(C(=O)NOCCO)c(Nc3ccc(I)cc3F)n(C)c(=O)c12 | < 500 | < 100
Cc1noc2c(C(=O)NOCCO)c(Nc3ccc(I)cc3F)n(C)c(=O)c12 | < 10000 | < 100
COCCONC(=O)c1c(Nc2ccc(I)cc2F)n(C)c(=O)c2ccoc12 | < 500 | < 100
CSc1ccc(Nc2c(C(=O)NOCCO)c3occc3c(=O)n2C)c(F)c1 | < 500 | < 100

Now from value to compound:

IC50 (MEK1 kinase) [nM] | IC50 [1] [nM] | SMILES
< 100 | < 100 | C[C@H](O)CONC(=O)c1c(Nc2ccc(I)cc2F)n(C)c(=O)c2ccoc12
< 500 | < 100 | Cc1cc2c(=O)n(C)c(Nc3ccc(I)cc3F)c(C(=O)NOCCO)c2o1
< 100 | < 100 | C[C@@H](CO)ONC(=O)c1c(Nc2ccc(I)cc2F)n(C)c(=O)c2ccoc12
< 500 | < 100 | Cc1coc2c(C(=O)NOCCO)c(Nc3ccc(I)cc3Cl)n(C)c(=O)c12
< 500 | < 100 | Cn1c(Nc2ccc(I)cc2F)c(C(=O)NOCCO)c2sccc2c1=O
< 500 | < 100 | CNc1nc2c(C(=O)NOCCO)c(Nc3ccc(I)cc3F)n(C)c(=O)c2s1
< 500 | < 100 | Cc1nc2c(C(=O)NOCCO)c(Nc3ccc(I)cc3F)n(C)c(=O)c2s1
< 500 | < 100 | CSc1nc2c(C(=O)NOCCO)c(Nc3ccc(I)cc3F)n(C)c(=O)c2s1
< 100 | < 100 | Cn1c(Nc2ccc(I)cc2F)c(C(=O)NOC[C@H](O)CO)c2occc2c1=O
< 500 | < 100 | Cn1c(Nc2ccc(I)cc2F)c(C(=O)NOCCO)c2nc(N)sc2c1=O
< 500 | < 100 | Cn1c(Nc2ccc(I)cc2F)c(C(=O)NOCCO)c2oc(CN3CCOCC3)cc2c1=O
< 500 | < 100 | CCONC(=O)c1c(Nc2ccc(I)cc2F)n(C)c(=O)c2ccoc12
< 500 | < 100 | CONC(=O)c1c(Nc2ccc(I)cc2F)n(C)c(=O)c2ccoc12
< 500 | < 100 | CN(C)Cc1cc2c(=O)n(C)c(Nc3ccc(I)cc3F)c(C(=O)NOCCO)c2o1
< 100 | < 100 | Cn1c(Nc2ccc(I)cc2F)c(C(=O)NOCC2CC2)c2occc2c1=O
< 500 | < 100 | Cc1cc2c(=O)n(C)c(Nc3ccc(I)cc3F)c(C(=O)NOC[C@H](O)CO)c2o1
< 100 | < 100 | Cn1c(Nc2ccc(I)cc2F)c(C(=O)NOC(C)(C)CO)c2occc2c1=O
< 100 | < 100 | Cn1c(Nc2ccc(I)cc2Cl)c(C(=O)NOCCO)c2occc2c1=O
< 100 | < 100 | CC[C@H](O)CONC(=O)c1c(Nc2ccc(I)cc2F)n(C)c(=O)c2ccoc12
< 100 | < 100 | CSc1nc2c(C(=O)NOCCO)c(Nc3ccc(I)cc3Cl)n(C)c(=O)c2s1
< 100 | < 100 | Cn1c(Nc2ccc(I)cc2F)c(C(=O)NOCCO)c2occc2c1=O
